The results in this text go back to patent publication US20080226718A1, “Indole and Azaindole Derivatives For the Treatment of Inflammatory and Autoimmune Diseases” (Brane Discovery S.r.l, priority 2005, published 2008).

“And” between values parts separate entries of the source, which are not always exact repeats. Equal values may be shown once. Read-outs that look alike come from different tables or passages of the source.

In data set [1] the test system is encephalitogenic lymphocytes. Description: Spontaneous adhesion of encephalitogenic T cells on purified ICAM-1. The format is cell-based, SJL mice. The note with it: Mus musculus, Lymphocyte, 1 h. A digest of the protocol:
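Autoreactive T cells came from SJL mice immunized with PLP139-151. Cells were pretreated for 1 h with compound at 5-100 μM or DMSO vehicle, then tested for spontaneous adhesion to purified ICAM-1 or VCAM-1. Inhibition is given as percent of vehicle control (100%), mean ± S.D. of three-four experiments.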

The subject of data set [2] is encephalitogenic lymphocytes. Description: Chemokine-induced adhesion of murine encephalitogenic T cells to ICAM-1. The format is cell-based, SJL mice. As to conditions: for Chemokine-induced Adhesion in encephalitogenic lymphocytes, Mean counts ± S.D., in presence of MIP3-β stimulation: 1 μM CCL19 (MIP-3beta); for Chemokine-induced Adhesion in encephalitogenic lymphocytes, Mean counts ± S.D., in presence of MIP3-β stimulation / Adhesion in encephalitogenic lymphocytes, Mean counts ± S.D., in absence of MIP3-β stimulation: ICAM-1. A digest of the protocol:
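Murine PLP139-151-reactive T cells from immunized SJL mice were pretreated with compound (5-50 μM, 37° C., 30-60 min or 1 h), then stimulated with 1 μM CCL19 (2-3 min, static) on ICAM-1-coated glass. Bound cells counted after washing and fixation; values are mean counts ±S.D of three experiments.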

The test system of data set [3] is experimental autoimmune encephalomyelitis (EAE). The data set can be described thus: EAE, preventive model. The format is in vivo. On the procedure:
(§1) Female SJL/J mice, 6-8 weeks of age, were obtained from Harlan-Nossan Italy. Mice were immunized s.c. with 200 μg PLP139-151 in 0.1 ml emulsion consisting of equal volumes of PBS and CFA (Difco Laboratories, Detroit, Mich.) and containing 6 mg/ml of Mycobacterium tuberculosis H37Ra (Difco). To induce a severe disease, in some experiments 400 ng Pertussis toxin (PTX) was administered i.v. at days 0 and 2 (Constantin, G. et al. Eur. J. Immunol., 28, 3523-3529, 1998). Mice were scored for EAE according to the following scale: 0, no disease; 1, tail weakness; 2, paraparesis; 3, paraplegia; 4, paraplegia with forelimb weakness or paralysis; 5, moribund or dead animals (Brocke S. et al., Autoimmune disease models. Academic Press, San Diego, 1-4, 1994).
Test compound was administered daily at 60 mg/kg i.p. for 17 days starting from the day of immunization. Control animals received vehicle (DMSO).
(§2) The effects of compound of Example 1 (PCT/EP2005/051908) were determined on EAE (experimental autoimmune encephalomyelitis), the animal model of multiple sclerosis (Tables 4 and 5). SJL mice were immunized with PLP139-151 peptide from cerebral proteolipid. The disease model has relapses and remission periods, as described in relapsing-remitting MS, the most frequent form of human disease accounting for 85% of all MS patients.
In the preventive model (Table 4), mice received 60 mg/kg daily of Compound of Example 1 (PCT/EP2005/051908), intraperitoneally, for 17 days starting from the day of immunization. Control animals received vehicle (DMSO). Control animals developed disease with a mean day of onset of 13±1.5. Mean maximum clinical score in control animals was 2.7±0.3. All control mice that developed disease also presented clinical relapses.

For data set [4] the test system is unchanged. The format is in vivo. As to conditions: therapeutic. How it is done:
as §1, §2
In the therapeutic model (Table 5), mice received 70 mg/kg of Compound of Example 1 (PCT/EP2005/051908), daily, intraperitoneally, for 11 days starting from the day of clinical onset. The treated mice also received 4 doses intravenously (i.v.) of 10 mg/kg each. Control animals received vehicle (DMSO). Control animals developed disease with a mean day of onset of 13.8±3, while treated mice developed EAE at 13.5±2 days postimmunization. Mean (±S.E.M.) maximum clinical score in control animals was 1.75±0.6.

The mark [5] stands for this setting: preventive, 60 mg/kg i.p. daily for 17 days from immunization.

For the molecule `COC(=O)c1[nH]c2cc(OC)c(OC)cc2c1-c1ccc(OC)cc1` [Example 1], in data set [1] ([cpd] 5 μM, read-out: Inhibition of Spontaneous Adhesion in encephalitogenic lymphocytes (% of control/non-treated cells) ICAM-1), the inhibition at 5 µM stood at 47%. For the same molecule, in data set [1] ([cpd] 10 μM, read-out: Inhibition of Spontaneous Adhesion in encephalitogenic lymphocytes (% of control/non-treated cells) ICAM-1 (converted)), the inhibition at 10 µM was 65%. The inhibition at 25 µM in data set [1] ([cpd] 25 μM, read-out: Inhibition of Spontaneous Adhesion in encephalitogenic lymphocytes (% of control/non-treated cells) ICAM-1 (converted)) was 70%. Further, in data set [1] ([cpd] 50 μM, read-out: Inhibition of Spontaneous Adhesion in encephalitogenic lymphocytes (% of control/non-treated cells) ICAM-1 (converted)), the inhibition at 50 µM is 89%. The inhibition at 100 µM in data set [1] ([cpd] 100 μM, read-out: Inhibition of Spontaneous Adhesion in encephalitogenic lymphocytes (% of control/non-treated cells) ICAM-1 (converted)) is 96%. Also, the “Block of chemokine-induced autoreactive lymphocyte adhesion, in words” value in data set [2] (5-50 μM for 1 h, 1 μM CCL19) is “almost complete block”. For the same molecule, the “Chemokine-induced Adhesion in encephalitogenic lymphocytes, Mean counts ± S.D., in presence of MIP3-β stimulation” value in data set [2] ([cpd] 5 μM) stood at 10.3 ± 1.0; in data set [2] ([cpd] 10 μM) it was 7.0 ± 1.0; in data set [2] ([cpd] 25 μM), 5.3 ± 2.0; in data set [2] ([cpd] 50 μM) it was 3.2 ± 1.0. The “Adhesion in encephalitogenic lymphocytes, Mean counts ± S.D., in absence of MIP3-β stimulation” value in data set [2] ([cpd] 5 μM) was 1.3 ± 1.0; in data set [2] ([cpd] 10 μM), 1.0 ± 1.0; in data set [2] ([cpd] 25 μM) it was 0.4 ± 0.2; in data set [2] ([cpd] 50 μM), 0.4 ± 0.1. For the same molecule, the “Visible toxicity (appearance of animals, macroscopic pathological analysis)” value in data set [3] (60 mg/kg i.p. daily for 17 days) is given as “neither the treatment caused any visible toxicity”. The “Development of clinical signs of disease, in words” value in data set [3] (preventive, 60 mg/kg i.p. daily for 17 days) is recorded as “completely blocked”. Also, in data set [3] (setting [5]), the Disease incidence was 0/6. In addition, the Mortality in data set [3] (setting [5]) and in data set [4] (70 mg/kg i.p. daily for 11 days from clinical onset plus 4 i.v. doses of 10 mg/kg) was 0/6 in each case. Further, the “Mean maximum clinical score” value in data set [3] (preventive, 60 mg/kg i.p. daily for 17 days from immunization, scale 0-5) turned out to be 0; in data set [4] (70 mg/kg i.p. daily for 11 days from clinical onset plus 4 i.v. doses of 10 mg/kg, scale 0-5, ±S.E.M.), 0.89 ± 0.23. In data set [3] (preventive, observation period of 61 days), the Clinical relapses result is recorded as “no treated animals developed clinical relapses”. Further, in data set [4] (P<0.01), the “Inhibition of mean maximum clinical score” value was found to be 50%. For the same molecule, the “Mean day of onset” value in data set [4] (treatment started at clinical onset) was 13.5±2 days postimmunization and 13.5 ± 2.0 days postimmunization.
